Experimental data from US6579881B2 (Eisai Co., Ltd., priority 1997, dated 2003).
Structures can show the parent of a compound that is named as a salt.

How the values were obtained:
serotonin 1A receptor = target: T1, serotonin 1A receptor (Rattus norvegicus, UniProt P19327); test: Binding test on [3H] 8-hydroxy-dipropylaminotetralin (serotonin 1A receptor); conditions: [3H] 8-OH-DPAT 0.5 nM, receptor fraction of rat hippocampus; read-out: 5HT1a
T1 construct: To the receptor fraction of the hippocampus were added a test compound and 0.5 nM of [^3H]; 8-hydroxy-dipropylaminotetralin; from tissue; host or cells: SD rat hippocampus, membrane (receptor) fraction
T1 sequence (P19327 1-422): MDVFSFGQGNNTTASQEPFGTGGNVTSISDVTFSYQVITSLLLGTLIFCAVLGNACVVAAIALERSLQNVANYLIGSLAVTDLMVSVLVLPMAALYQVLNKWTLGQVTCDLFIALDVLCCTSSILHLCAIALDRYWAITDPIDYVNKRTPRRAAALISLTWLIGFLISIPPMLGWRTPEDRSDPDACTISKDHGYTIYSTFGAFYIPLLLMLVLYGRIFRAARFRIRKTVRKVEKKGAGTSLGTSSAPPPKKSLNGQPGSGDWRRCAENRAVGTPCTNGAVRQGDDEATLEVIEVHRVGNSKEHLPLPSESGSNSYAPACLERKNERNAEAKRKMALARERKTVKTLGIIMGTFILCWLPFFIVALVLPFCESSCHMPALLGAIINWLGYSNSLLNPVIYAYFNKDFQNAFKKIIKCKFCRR

serotonin 2 receptor = serotonin 2 receptor (Rattus norvegicus, UniProt P14842); test: Binding test on [3H] ketanserin (serotonin 2 receptor); conditions: [3H] ketanserin 0.3 nM, receptor fraction of rat cerebral cortex; read-out: 5HT2
serotonin 2 receptor, sequence (P14842 whole entry): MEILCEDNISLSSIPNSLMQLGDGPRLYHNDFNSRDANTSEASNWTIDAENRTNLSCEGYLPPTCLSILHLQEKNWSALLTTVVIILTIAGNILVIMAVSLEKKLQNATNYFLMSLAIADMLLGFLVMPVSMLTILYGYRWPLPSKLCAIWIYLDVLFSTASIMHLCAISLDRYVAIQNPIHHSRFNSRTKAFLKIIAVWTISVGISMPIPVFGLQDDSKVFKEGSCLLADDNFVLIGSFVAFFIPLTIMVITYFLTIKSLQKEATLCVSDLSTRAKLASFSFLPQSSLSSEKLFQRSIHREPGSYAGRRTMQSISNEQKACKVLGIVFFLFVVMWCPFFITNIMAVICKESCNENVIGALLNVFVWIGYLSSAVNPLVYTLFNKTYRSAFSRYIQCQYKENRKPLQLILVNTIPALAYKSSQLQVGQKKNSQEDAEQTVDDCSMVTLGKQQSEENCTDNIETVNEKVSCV

Row | Ki (serotonin 1A receptor) [nM] | Ki (serotonin 2 receptor) [nM] | SMILES
1 | 2.7 | 28.4 | Fc1ccc(CCN2CCC(N3CCc4ccc(Cl)cc43)CC2)cc1 [Example 102, 1-[1-(4-fluorophenethyl)piperidin-4-yl]-6-chloroindoline]
2 | 1.6 | 8.9 | CCC(=O)NCc1ccc(CCN2CCC(N3CCc4ccccc43)CC2)cc1 [Example 39]
3 | 7.1 | 10.3 | N#Cc1ccc(CCN2CCC(N3CCc4ccccc43)CC2)cn1 [Example 54, 1-{1-[2-(2-cyanopyridin-5-yl)ethyl]piperidin-4-yl}indoline]
4 | 1.08 | > 20 | Fc1ccc(CCN2CCC(n3ccc4ccc(F)cc43)CC2)cc1 [Example 333, 1-[1-(4-fluorophenethyl)piperidin-4-yl]-6-fluoroindole]
5 | 5.73 | 1.15 | OC(c1ccc2c(c1)N(C1CCN(CCc3ccc(F)cc3)CC1)CC2)c1cscn1 (stereo not shown) [Example 195, 1-[1-(4-fluorophenethyl)piperidin-4-yl]-6-[1-(4-thiazolyl)-1-hydroxymethyl]indoline]
6 | 1.86 | 3.36 | FCc1ccc2c(c1)N(C1CCN(CCc3ccc(F)cc3)CC1)CC2 [Example 143, 1-[1-(4-fluorophenethyl)piperidin-4-yl]-6-fluoromethylindoline]
7 | 0.13 | 0.12 | COc1ccc(CCN2CCC(N3CCc4ccccc43)CC2)cc1 [Example 18, 1-[1-(4-methoxyphenethyl)piperidin-4-yl]indoline]
8 | 7.7 | 1.7 | COc1cccc2c1N(C1CCN(CCc3ccc(F)cc3)CC1)CC2 [Example 107, 1-[1-(4-fluorophenethyl)piperidin-4-yl]-7-methoxyindoline]
9 | 15.2 | 0.22 | Oc1ccc(CCN2CCC(N3CCc4ccccc43)CC2)cc1 [Example 20, 1-[1-(4-hydroxyphenethyl)piperidin-4-yl]indoline]
10 | 25.4 | 28.2 | OCCc1ccc(OCCCN2CCC(N3CCc4ccccc43)CC2)cc1 [Example 71, 1-{1-[3-(4-hydroxyethylphenoxy)propyl]piperidin-4-yl}indoline]
11 | 251 | 2.7 | OCCOc1cccc2c1N(C1CCN(CCc3ccc(F)cc3)CC1)CC2 [Example 123, 1-[1-(4-fluorophenethyl)piperidin-4-yl]-7-hydroxyethoxyindoline]
12 | 13.5 | 26.9 | Fc1cccc(CCN2CCC(N3CCc4ccccc43)CC2)c1 [Example 8, 1-[1-(3-fluorophenethyl)piperidin-4-yl]indoline]
13 | 46.9 | 8.1 | CS(=O)(=O)c1ccc(CCN2CCC(N3CCc4ccccc43)CC2)cc1 [Example 28, 1-[1-(4-methanesulfonylphenethyl)piperidin-4-yl]indoline]
14 | > 200 | 28.8 | FC(F)(F)c1ccc(CCN2CCC(N3CCc4ccccc43)CC2)cc1 [Example 27, 1-[1-(4-trifluoromethylphenethyl)piperidin-4-yl]indoline]
15 | 2.4 | 6 | Oc1ccc2c(c1)N(C1CCN(CCc3ccc(F)cc3)CC1)CC2 [Example 104, 1-[1-(4-fluorophenethyl)piperidin-4-yl]-6-hydroxyindoline]
16 | 0.4 | 12.1 | Fc1ccc(CCN2CCC(=C3CCc4cccnc43)CC2)cc1 [Example 256, 7-[1-(4-fluorophenethyl)piperidin-4-ylidene]-5,6-dihydropyrindine]
17 | 0.81 | 2.69 | O=C1CNC(=O)N1Cc1ccc2c(c1)N(C1CCN(CCc3ccc(F)cc3)CC1)CC2 [Example 207, 1-[1-(4-fluorophenethyl)piperidin-4-yl]-6-(2,4-imidazolidinedion-3-yl)methylindoline]
18 | 41.9 | 17.8 | OCc1ccc(CCN2CCC(N3CCc4ccccc43)CC2)cn1 [Example 55, 1-{1-[2-(2-hydroxymethylpyridin5-yl)ethyl]piperidin-4-yl}indoline]
19 | 2.76 | 0.12 | O=C1CCCC(=O)N1Cc1ccc2c(c1)N(C1CCN(CCc3ccc(F)cc3)CC1)CC2 [Example 205, 1-[1-(4-fluorophenethyl)piperidin-4-yl]-6-(glutarimido-1-yl)methylindoline]
20 | 16.4 | 0.27 | CC(C)CNC(=O)Cc1ccc2c(c1)N(C1CCN(CCc3ccc(F)cc3)CC1)CC2 [Example 152, 1-[1-(4-fluorophenethyl)piperidin-4-yl]-6-(isobutylcarbamoylmethyl)indoline]
21 | 58.5 | > 200 | CCN1CCN(C2CCc3ccc(OC)cc32)CC1 (stereo not shown) [Example 251, 1-(4-ethylpiperazin-1-yl)-6-methoxyindan Hydrochloride]
22 | 19.8 | 5.03 | CC(C)NC(=O)Cc1ccc(CCN2CCC(N3CCc4ccccc43)CC2)cc1 [Example 41, 1-[1-(4-N-isopropylcarbamoylmethylphenethyl)piperidin-4-yl]indoline]
23 | > 200 | 15.7 | OC1(C2CCc3cccnc32)CCN(CCc2ccc(F)cc2)CC1 (stereo not shown) [Example 255, 7-[4-hydroxy-1-(4-fluorophenethyl)piperidin-4-yl]-5,6-dihydro-7H-pyrindine]
24 | 0.7 | 10.4 | CCCS(=O)(=O)Nc1ccc2c(c1)N(C1CCN(CCc3ccc(F)cc3)CC1)CC2 [Example 118, 1-[1-(4-fluorophenethyl)piperidin-4-yl]-6-propanesulfonylaminoindoline]
25 | 0.55 | 4.61 | O=C1CCCCN1Cc1ccc2c(c1)N(C1CCN(CCc3ccc(F)cc3)CC1)CC2 [Example 203, 1-[1-(4-fluorophenethyl)piperidin-4-yl]-6-(2-piperidon-1-yl)methylindole]
26 | 0.38 | 1.3 | CC(=O)NCc1ccc2ccn(C3CCN(CCc4ccc(F)cc4F)CC3)c2c1 [Example 357, 1-[1-(2,4-difluorophenethyl)piperidin-4-yl]-6-acetamidomethylindole]
27 | 4.6 | 14.8 | O=C(CCl)NCc1ccc(CCN2CCC(N3CCc4ccccc43)CC2)cc1 [Example 37, 1-[1-(4-chloroacetamidomethylphenethyl)piperidin-4-yl]indoline]

Row | SMILES | Ki (serotonin 1A receptor) [nM] | Ki (serotonin 2 receptor) [nM]
28 | CN(C)Cc1ccc2c(c1)N(C1CCN(CCc3ccc(F)cc3)CC1)CC2 [Example 200, 1-[1-(4-fluorophenethyl)piperidin-4-yl]-6-N,N-dimethylaminomethylindoline] | 4.84 | 234
29 | O=C(O)Cc1ccc2c(c1)N(C1CCN(CCc3ccc(F)cc3)CC1)CC2 [Example 146, 1-[1-(4-fluorophenethyl)piperidin-4-yl]-6-carboxymethylindoline] | 164 | > 200
30 | COc1ccc2c(c1)N(C1CCN(CCc3ccc4ncsc4c3)CC1)CC2 [Example 233, 1-{1-[2-(6-benzothiazolyl)ethyl]-piperidin-4-yl}-6-methoxyindoline] | 0.6 | > 200
31 | Fc1ccc(CCN2CCC(N3CCc4ccc(-c5ccccn5)cc43)CC2)cc1 [Example 171, 1-[1-(4-fluorophenethyl)piperidin-4-yl]-6-(2-pyridyl)indoline] | 0.39 | 178
32 | OCCc1ccc(CCN2CCC(N3CCc4ccccc43)CC2)cc1 [Example 24, 1-{1-[4-(2-hydroxyethyl)phenethyl]piperidin-4-yl}indoline] | 26.5 | 174
